We go through 1 compound from PMC6013775, “Inhibition of the key enzyme of sialic acid biosynthesis by C6-Se modified N-acetylmannosamine analogs” (Chemical Science, 2016).

The nature of series [1]: Stability of the diselenide towards thiol reducing agents, 77Se NMR. The format is physicochemical. The protocol:
At this stage, we also wanted to evaluate the stability of the diselenide 14b in presence of thiol-containing reducing agents like dithiothreitol (DTT) or glutathione (GSH) to address the application of our compounds in living cells. Therefore, the possible reduction of the diselenide bond was monitored by ^77Se NMR using a solution of 60 mM concentration of 14b in an aqueous saturated DTT solution at room temperature. Immediately after the addition of 14b to the DTT solution, a characteristic signal for the selenol compound at –48.1 ppm was observed and a major peak at 294 ppm related to the diselenide. Concretely, the integration of diselenide/selenol peaks gave a 90 : 10 ratio (details in ESI ^†).

In series [2] the target is T1, UDP-GlcNAc-2-epimerase (GNE) activity of GNE/MNK (Mus musculus, UniProt Q91WG8).
T1 construct: Analysis of GNE/MNK in mouse liver cytosol; from tissue; host or cells: mouse liver cytosol (supernatant of liver homogenate)
T1 sequence (Q91WG8 1-722): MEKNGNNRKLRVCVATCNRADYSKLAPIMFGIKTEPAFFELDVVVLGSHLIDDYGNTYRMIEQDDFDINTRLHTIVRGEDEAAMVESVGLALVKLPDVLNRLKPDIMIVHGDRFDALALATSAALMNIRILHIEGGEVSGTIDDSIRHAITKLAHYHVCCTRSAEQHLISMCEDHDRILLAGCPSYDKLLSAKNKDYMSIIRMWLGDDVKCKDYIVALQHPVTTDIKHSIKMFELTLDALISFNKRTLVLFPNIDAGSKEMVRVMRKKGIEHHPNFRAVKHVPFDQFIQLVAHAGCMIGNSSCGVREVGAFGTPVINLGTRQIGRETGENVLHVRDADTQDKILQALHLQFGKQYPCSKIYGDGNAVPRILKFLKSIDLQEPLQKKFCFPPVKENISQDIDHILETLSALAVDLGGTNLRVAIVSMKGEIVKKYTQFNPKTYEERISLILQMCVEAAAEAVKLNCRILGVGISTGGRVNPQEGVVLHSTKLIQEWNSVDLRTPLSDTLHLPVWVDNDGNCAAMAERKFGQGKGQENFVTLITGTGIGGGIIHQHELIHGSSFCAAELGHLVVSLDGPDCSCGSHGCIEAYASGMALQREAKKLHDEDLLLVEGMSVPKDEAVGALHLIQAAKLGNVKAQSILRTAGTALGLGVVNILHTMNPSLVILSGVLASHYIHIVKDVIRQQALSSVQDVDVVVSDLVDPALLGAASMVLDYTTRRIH
The experiment in a line: Colorimetric GNE activity assay in mouse liver cytosol. The format is biochemical. The following applies: 1 mM UDP-GlcNAc, 45 min at 37 °C, read-out: IC50 for inhibiting GNE activity. The text has this: With the potent diselenide compound 14b in hand, we further studied the binding properties of this potent MNK inhibitor, which is to our knowledge the strongest MNK inhibitor reported to date. Diselenide 14b inhibited MNK activity in a dose dependent manner (Fig. 2A). […] Additionally, we tested if diselenide 14b influenced the GNE activity of the bifunctional GNE/MNK. […] To evaluate the specificity of the inhibitor towards other sugar kinases, we performed further inhibition studies using human GlcNAc kinase (GNK) and hexokinase (HK) from yeast (details in ESI ^†).
Evaluation of the influence of 14b on UDP-GlcNAc-2-epimerase activity
To study, if diselenide 14b interferes with the activity of the GNE domain of the bifunctional enzyme, we used enzymes from mouse liver homogenates. […] The sample was incubated at 37 °C for 20 min and the absorbance was […]

Several values for one entry are separate records, joined by “and”; a condition that tells them apart may be missing. Identical values can stand only once.

By IC50 is commonly meant the concentration that gives 50% inhibition. Consider `CC(=O)N[C@@H]1C(O)O[C@H](C[Se][Se]C[C@H]2OC(O)[C@@H](NC(C)=O)[C@@H](O)[C@@H]2O)[C@@H](O)[C@@H]1O` (stereo partly drawn) [Compound 14b], for which the “species detected by 77Se NMR” value is given as “only signals from the diselenide were detected” in series [1] (60 mM in aqueous saturated DTT solution, between 15 min and 5 h); “only diselenide 14b was detected” in series [1] (60 mM in saturated GSH solution). Also, the IC50 in series [2] was ~200 µM and 182 µM.
